Results published in PubChem BioAssay (NCI).
Where “and” joins values, the source holds several entries; their conditions need not be identical. Identical values can stand only once.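 Tested at 5 concentrations; 48 h exposure; 96-well plates; endpoints linearly interpolated, else capped at highest concentration. Abbreviation: GI50, concentration required for 50% inhibition of growth. TGI marks complete inhibition of growth.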

Legend:
Test in all cases: NCI anticancer screen, dose series, 48 h
[1] = tested on: HCC-2998 colon
[2] = tested on: HCT-15 colon
[3] = tested on: K-562 leukemia
[4] = tested on: LOX IMVI melanoma
[5] = tested on: PC-3 prostate
[6] = tested on: SF-268 CNS
[7] = tested on: SK-OV-3 ovarian
[8] = tested on: SW-620 colon
[9] = tested on: UACC-257 melanoma
[10] = tested on: UACC-62 melanoma

Row | SMILES | TGI [1] | TGI [2] | TGI [3] | TGI [4] | TGI [5] | TGI [6] | TGI [7] | TGI [8] | TGI [9] | TGI [10] | GI50 [1] | GI50 [2] | GI50 [3] | GI50 [4] | GI50 [5] | GI50 [6] | GI50 [7] | GI50 [8] | GI50 [9] | GI50 [10]
1 | CC(=O)O[C@@H]1[C@H]2O[C@H]2[C@H]2O[C@@]2(COC(=O)c2ccccc2)[C@H]1OC(C)=O | > 100 µM | > 100 µM | > 100 µM | > 100 µM | > 100 µM | > 100 µM | > 100 µM | > 100 µM | > 100 µM | > 100 µM |  |  |  |  |  |  |  |  |  | 
2 | O=c1[nH]c2c(ccc3cnccc32)c2c1CCC2 | 1.91 µM | > 100 µM | > 100 µM | > 33.2 µM |  | 37.3 µM | > 100 µM | 1.84 µM | 0.833 µM | 0.622 µM | 0.356 µM | 0.357 µM | 0.657 µM | 0.282 µM | 0.288 µM | 0.333 µM | 1.7 µM | 0.308 µM | 0.245 µM | 0.214 µM
3 | O=C1Nc2ccc(I)cc2/C1=C/c1cc(Br)c(O)c(Br)c1 | > 25 µM and 33.6 µM | > 65.8 µM | > 100 µM | > 79 µM | > 74.7 µM | > 25 µM and 68.8 µM | > 25 µM and 47.5 µM | > 25 µM and 51.1 µM | > 25 µM and 69.2 µM | > 25 µM and 29.6 µM | 24.5 µM and 16.3 µM | > 16 µM and 17.2 µM | > 51.9 µM | > 17.5 µM and 16.2 µM | > 17.7 µM and 23.3 µM | > 21.9 µM and 18.2 µM | > 25 µM and 17.9 µM | 24.8 µM and 22 µM | > 20.7 µM and 16.5 µM | 11.5 µM and 8.43 µM
4 | COc1cc(F)c(F)c(F)c1C(=O)c1cnc(NC2CCN(S(C)(=O)=O)CC2)nc1N | > 21.6 µM | > 25 µM | > 25 µM | > 13 µM | 9.3 µM | > 18.9 µM | > 25 µM | > 25 µM | 14 µM | 7.98 µM | 2.87 µM | 1.32 µM | 4.78 µM | 1.04 µM | 0.476 µM | 2.78 µM | 11.6 µM | 0.409 µM | 3 µM | 1.49 µM
5 | CS(=O)c1cc(=O)c2ccccc2s1 (stereo not drawn) | 16.6 µM | 6.75 µM | 7.57 µM | 9.02 µM | 28.9 µM | 24.5 µM | 39.4 µM | 4.2 µM | 7.26 µM | 17.6 µM |  |  |  |  |  |  |  |  |  | 
6 | CN(C)CCCn1c2c(c3ccc(N4CCNCC4)cc3c1=O)C(=O)c1ccccc1-2 | 1.71 µM | 3.04 µM | 2.55 µM | 0.481 µM | 3.79 µM | 2.72 µM | 3.51 µM | 1.61 µM | 3.74 µM | 2.52 µM | 0.352 µM | 0.728 µM | 0.833 µM | 0.145 µM | 0.863 µM | 0.95 µM | 1.05 µM | 0.164 µM | 1.69 µM | 1.03 µM
7 | O=C(c1ccco1)c1c(C(F)(F)F)n([O-])c2cc(Cl)c(Cl)cc2[n+]1=O | 1.26 µM | 0.654 µM | 2.87 µM | 0.52 µM | 1.01 µM | 0.774 µM | 5.83 µM | 2.48 µM | 2.15 µM | 1.49 µM | 0.606 µM | 0.233 µM | 0.173 µM | 0.169 µM | 0.23 µM | 0.236 µM | 2.95 µM | 0.873 µM | 0.761 µM | 0.705 µM
8 | C/C=C/C(C/C=C(\C)CO[Si](C)(C)C(C)(C)C)O[Si](C)(C)C(C)(C)C (stereo not drawn) | > 100 µM | > 100 µM | > 100 µM | > 100 µM | > 100 µM | > 100 µM | > 100 µM | > 100 µM | > 100 µM | > 100 µM |  |  |  |  |  |  |  |  |  | 
9 | COc1ncc(-c2ccc3nc(N)n(-c4ccccc4C(F)(F)F)c(=O)c3c2)cc1S(=O)(=O)Nc1ccc(F)cc1F | 13.7 µM | 6.96 µM | > 100 µM | 0.761 µM | 73.7 µM | > 100 µM | > 100 µM | 20 µM | 24.5 µM | 9.59 µM | 1.74 µM | 0.758 µM | 5.73 µM | 0.224 µM | 1.71 µM | 2.43 µM | 4.85 µM | 1.84 µM | 7.81 µM | 3.06 µM
10 | COc1cnc2c(c1)C(=O)c1c-2n(CCCN2CCNCC2)c(=O)c2cc(F)ccc12 | 2.56 µM | 1.3 µM | 1.44 µM | 1.32 µM | 2.51 µM | 1.86 µM | 0.916 µM | 1.46 µM | 2.69 µM | 3.02 µM | 1.05 µM | 0.126 µM | 0.148 µM | 0.18 µM | 0.596 µM | 0.282 µM | 0.21 µM | 0.11 µM | 1.29 µM | 1.26 µM
11 | CC(=O)Nc1ccc(S(=O)(=O)N2C(=O)CCC2C(=O)Nc2ccccc2)cc1 (stereo not drawn) | 5.62 µM | 14.8 µM | 10.2 µM | 13.2 µM | 15.7 µM | 23.3 µM | 18.8 µM | 16.7 µM | 17.2 µM | 10.3 µM | 0.645 µM | 0.293 µM | 0.258 µM | 0.0482 µM | 1.08 µM | 3.82 µM | 2.87 µM | 0.405 µM | 1.34 µM | 0.0523 µM
12 | CC[C@@]12CC(C(=O)OC)=C3Nc4ccccc4[C@@]34CCN(C[C@H]3O[C@H]31)[C@@H]24 | > 100 µM | > 100 µM | > 100 µM | > 100 µM | > 100 µM | > 100 µM |  | > 100 µM | > 100 µM | > 100 µM | > 100 µM | 33.5 µM | 23.2 µM | 34.8 µM | 52.7 µM | > 100 µM |  | 35.9 µM | 66.7 µM | 17.7 µM
13 | O=C(N=Nc1c(O)[nH]c2c(Cl)cc(Cl)cc12)C(=O)Nc1cccc(C(F)(F)F)c1 | > 100 µM | > 100 µM |  | > 100 µM | > 100 µM |  | > 100 µM | > 100 µM | > 100 µM | > 100 µM |  |  |  |  |  |  |  |  |  | 
14 | CCc1ccc2cc3c(ccc4ccccc43)c3c2c1CC3 | > 100 µM | > 100 µM | > 100 µM | > 100 µM | > 100 µM | > 100 µM | > 100 µM | > 100 µM |  | > 100 µM | > 100 µM | > 100 µM | > 100 µM | > 100 µM | > 100 µM | > 100 µM | > 100 µM | > 100 µM |  | > 100 µM
